Results reported in patent US8937089B2, “Synergistic mixtures of anthranilamide invertebrate pest control agents” (priority 2004, dated 2015).
Read-outs that look alike come from different tables or passages of the source.

Assays:
Format in all cases: in vivo
[1] = tested on: silverleaf whitefly (Bemisia argentifolii); test: Test G: systemic control of silverleaf whitefly, drip irrigation of tomato plant in greenhouse
Procedure: For evaluating systemic control of silverleaf whitefly (Bemisia argentifolii), each test unit consisted of a 10-inch (25.4 cm) pot with sand, and a tomato plant (var. Tiny Tim) at the 5 to 10 true leaf stage. Oxamyl was in the liquid formulation as Vydate® L and compound 1 was in a wettable powder formulation with 50% active ingredient. Test compounds in approximately 200 mL of water per pot were applied by drip irrigation in the greenhouse. Whitefly activity was evaluated on a naturally occurring population by removing 5 old leaves with clearly visible nymphs. When there were no leaves with clearly visible nymphs, 5 old leaves were removed at random. Leaves were evaluated for dead and live nymphs. For all tests, analysis was conducted by using Fisher's LSD test for means separation, at p=0.05 (see. K. A. Gomez and A. A. Gomez, “Statistical Procedures for Agricultural Research”, 2nd edition, John Wiley & Sons, New York, 680 pp). Mean comparisons were made within each evaluation date only.

[2] = tested on: beet armyworm (Spodoptera exigua); test: Test H: systemic control of beet armyworm, drip irrigation of tomato plant, leaf discs, % mortality and % feeding; details: mg ai/pot: Oxamyl 100, Compound 1 20, Oxamyl + Compound 1 100 + 20
Procedure: For evaluating systemic control of beet armyworm (Spodoptera exigua), each test unit consisted of a 10-inch (25.4 cm) pot filled with sand and containing a tomato plant (var. Tiny Tim) at the 5 to 10 true leaf stage. Oxamyl was in the liquid formulation as Vydate® L and compound 1 was in a wettable powder formulation with 50% active ingredient. Test compounds in approximately 200 mL of water per pot were applied by drip irrigation in the greenhouse. The plants were sampled at indicated date by cutting discs of the leaf material and placing each disc on a layer of agar gel in a 16-well, 1.5 oz. cup tray (B-150-S 0.028 Natural, Clear Pack Co., Franklin Park, Ill. 60131). One beet armyworm larva was added to each cell and the cells were covered. Trays were held in the growth chamber at 25° C., 16-hour light:8-hour dark, 60% relative humidity for 4 days. The percentage of mortality (abbreviated as % Morta.) and percentage of feeding (abbreviated as % feed), were visually assessed; the results are listed in Table 9. For all tests, analysis was conducted by using the LSD test. Mean comparisons were made within each evaluation date only.

[3] = tested on: cabbage looper (Trichoplusia ni); test: Test J: foliar control of cabbage looper, sprayed cabbage leaves, % mortality and % feeding; details: for mortality at […]: Trichoplusia ni, foliar, read-out: % mortality (observed)
Procedure: For evaluating control of beet armyworm (Spodoptera exigua), methomyl was in the liquid formulation as Lannate® LV (29% of active ingredient). Compound 1 was in a water dispersible granules (WDG) formulation with 35% active ingredient. The test compounds were dissolved in water. Enough water was added to make 100 ppm of active ingredient for each compound. Serial dilutions were made to obtain the appropriate concentrations. To obtain the desired mixture concentrations of each compound, twice the desired concentration of each of the two mixture partner compounds were mixed together in equal volumes.
(§1) The diluted solutions of the test compounds were sprayed to run-off on three-week-old tomato plants. The plants were placed on a rotating turntable sprayer (10 rpm). Test solutions were applied using a flat fan air-assisted nozzle (Spraying Systems 122440) at 10 psi (69 kPa). After each treated plant had dried, leaves were excised from the treated plant. The leaves were cut into pieces, which were placed singly into 5.5 cm-by-3.5 cm cells of a sixteen-cell plastic tray. Each cell contained a 2.5-cm square of moistened chromatography paper to prevent desiccation. One insect was placed in each cell. There two trays per treatment. Trays were held in the growth chamber at 25° C., 16-hour light:8-hour dark, 60% relative humidity for 4 days.
(§2) For evaluating foliar control of cabbage looper (Trichoplusia ni), cabbage (var. Stonehead) plants were grown in Metromix potting soil in 10-cm pots in aluminum trays to test size (28 days, 3-4 full leaves). Test compounds were formulated and sprayed on test plants as described for Test I. After drying for 2 hours, the treated leaves were excised and infested with one cabbage looper per cell and covered. The test units were placed on trays and put in a growth chamber at 25° C. and 60% relative humidity for 4 days.

[4] = tested on: diamondback moth (Plutella xylostella); test: whole plant or invertebrate
Procedure: The test compounds were dissolved in water. […] Serial dilutions were made to obtain the appropriate concentrations. To obtain the desired mixture concentrations of each compound, twice the desired concentration of each of the two mixture partner compounds were mixed together in equal volumes.
as §1, with “After each treated plant had dried, leaves were excised from the treated plant.” left out
as §2, with “evaluating” for “evaluating foliar”, “diamondback moth (Plutella xylostella),” for “cabbage looper (Trichoplusia ni),”, “leaves) the plants were sprayed to the point of runoff using the turntable sprayer as described in Test I.” for “leaves).”

[5] = Day 6, mg ai/pot: Oxamyl 100, Compound 1 20, Oxamyl + Compound 1 100 + 20
[6] = Day 13, mg ai/pot: Oxamyl 100, Compound 1 20, Oxamyl + Compound 1 100 + 20
[7] = Day 20, mg ai/pot: Oxamyl 100, Compound 1 20, Oxamyl + Compound 1 100 + 20
[8] = Day 13 - old growth (first of two heads so printed, c4)
[9] = Day 13 - old growth (first of two heads so printed, c5)
[10] = Day 13 - old growth (second of two heads so printed, c6)
[11] = Day 13 - old growth (second of two heads so printed, c7)

| Structure (SMILES) | % Mortality [1, 5] | Nymphs number [1, 5] | % Mortality [1, 6] | Nymphs number [1, 6] | % Mortality [1, 7] | Nymphs number [1, 7] | % Morta. ([2]; Day 6 new & old) | % feed ([2]; Day 6 new & old) | % Morta. [2, 8] | % feed [2, 9] | % Morta. [2, 10] | % feed [2, 11] | % Morta. ([2]; Day 20 - new growth) | % feed ([2]; Day 20 - new growth) | % Morta. ([2]; Day 20 - old growth) | % feed ([2]; Day 20 - old growth) | further results |
| --- | --- | --- | --- | --- | --- | --- | --- | --- | --- | --- | --- | --- | --- | --- | --- | --- | --- |
| CNC(=O)c1cc(Cl)cc(C)c1NC(=O)c1cc(Br)nn1-c1ncccc1Cl [Compound 1, 3-bromo-N-[4-chloro-2-methyl-6-[(methylamino)carbonyl]phenyl]-1-(3-chloro-2-pyridinyl)-1H-pyrazole-5-carboxamide] | 44% | 316 | 99% | 194 | 100% | 300 | 99% | 0% | 100% | 0% | 97% | 0% | 100% | 0% | 100% | 0% | mortality at […] ([3]; Compound 1 0.032 ppm): 9%; mortality at […] ([3]; Compound 1 0.057 ppm): 22%; % feeding ([4]; Compound 1 0.007 ppm): 10.0%; % feeding ([4]; Compound 1 0.030 ppm): 0%; mortality at 0.007 ppm ([4]; Plutella xylostella, in Brassica oleracea, Compound 1 0.007 ppm, read-out: % mortality (observed)): 13%; mortality at […] ([4]; Plutella xylostella, in Brassica oleracea, Compound 1 0.013 ppm, read-out: % mortality (observed)): 34%; mortality at 0.03 ppm ([4]; Plutella xylostella, in Brassica oleracea, Compound 1 0.030 ppm, read-out: % mortality (observed)): 78%; mortality at 0.01 ppm ([4]; Plutella xylostella, in Brassica oleracea, rate 0.01 ppm, read-out: % mortality (obs)): 87%; mortality at 0.02 ppm ([4]; Plutella xylostella, in Brassica oleracea, rate 0.02 ppm, read-out: % mortality (obs)): 77%; mortality at 0.04 ppm ([4]; Plutella xylostella, in Brassica oleracea, rate 0.04 ppm, read-out: % mortality (obs)): 93% |
| COC(=O)N(C(=O)N1CO[C@@]2(C(=O)OC)Cc3cc(Cl)ccc3C2=N1)c1ccc(OC(F)(F)F)cc1 [Indoxacarb] | – | – | – | – | – | – | – | – | – | – | – | – | – | – | – | – | % feeding ([3]; Indoxacarb 0.146 ppm): 68%; % mortality (observed) ([3]; Indoxacarb 0.146 ppm): 31%; % feeding ([4]; Indoxacarb 0.147 ppm): 13.8%; % mortality (observed) ([4]; Indoxacarb 0.147 ppm): 33%; % feeding ([4]; Indoxacarb 0.226 ppm): 3.5%; % mortality (observed) ([4]; Indoxacarb 0.226 ppm): 25%; % feeding ([4]; Indoxacarb 0.340 ppm): 0.5%; % mortality (observed) ([4]; Indoxacarb 0.340 ppm): 47%; % feeding ([4]; Indoxacarb 1 ppm): 0.1%; % mortality (observed) ([4]; Indoxacarb 1 ppm): 50% |
| CNC(=O)O/N=C(\SC)C(=O)N(C)C [Oxamyl] | 6% | 380 | 34% | 506 | 28% | 404 | 26% | 49% | 35% | 43% | 40% | 40% | 25% | 92% | 31% | 65% | – |
